Residues, ends and D or L forms follow the SMILES beside them.
Assays:
Type in all cases: in vitro ADME
[1] = molecular target: Proteinase K (Parengyodontium album, UniProt P06873); assay: Peptide conjugate digestion with Proteinase K; design: key to the marks not given beside the values; settings: 37° C. for 1 hr
Experimental: (§1) Linear peptides (PK15 and CG4L1-PK15L1) were first treated with iodoacetamide prior to digestion studies. The peptides (ca 3-4 mg) were purified by HPLC (semi-prep Proteo column as described in general methods), and the HPLC fraction (ca 3 ml) was neutralised with an equal volume of 50 mM ammonium bicarbonate. […] The reaction mixture was concentrated (rotary evaporator) and re-purified by HPLC as above.
(§2) Peptides (linear and conjugates) were dissolved in water at a concentration of 1 mg/ml, giving an effective concentration of −0.5 mM stock solutions. 2 μl of peptide conjugates (˜30 μM in reactions depending on actual molecular weight) where dissolved in reaction buffer (see below) in a total reaction volume of 30 μl, followed by the protease, and samples were incubated at 37° C. for 1 hr. 10 μl aliquots were quenched into 20 μl of 10% dichloroacetic acid in MeCN/H2O (1:1) and stored at −20° C. for 30 minutes, centrifuged at 4° C. (13000 rpm) for 5 minutes and then spotted onto MALDI-TOF mass spectrometer plate for analysis.
(§3) All reactions at 37° C. Cathepsin G and kalikrein reactions were carried out in 10 mM Tris pH 7.4, 150 mM NaCl, 10 mM MgCl2, 1 mM CaCl2, 0.1% BSA, 0.01% Triton X100, 5% DMSO. Chymotrypsin reactions were carried out in 100 mM Tris pH 7.4, 10 mM CaCl2. Pronase and proteinase K reactions were carried out in 100 mM Tris pH 7.4, 0.5% SDS. Subtilisin reactions were carried out in 50 mM KH2PO4 pH 7.5. Trypsin reactions were carried out in 67 mM sodium phosphate pH 7.6. Reaction conditions with serum involve dissolving the peptide in 1×PBS (total volume 24 μl) and 6 μl of human serum added to the reaction.

[2] = molecular target: T1, Cathepsin G (Homo sapiens, UniProt P08311); assay: Peptide conjugate digestion with Cathepsin G; design: key to the marks not given beside the values; settings: 37° C. for 1 hr
T1 sequence (P08311 21-244): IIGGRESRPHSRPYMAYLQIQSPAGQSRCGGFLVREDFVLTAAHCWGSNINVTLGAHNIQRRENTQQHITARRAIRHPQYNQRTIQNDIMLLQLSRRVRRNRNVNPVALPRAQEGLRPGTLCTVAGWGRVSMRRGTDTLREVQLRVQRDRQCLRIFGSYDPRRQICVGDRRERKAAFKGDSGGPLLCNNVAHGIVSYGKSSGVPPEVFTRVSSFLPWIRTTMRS
Experimental: as §1, §2, §3

[3] = Resistance to serum; settings: 37° C., human serum in PBS; later times not yet tested
Experimental: as §2, §3

[4] = system: Trypsin; assay: Peptide conjugate digestion with Trypsin; settings: 37° C. for 1 hr
Experimental: as §1, §2, §3

[5] = system: Pronase; assay: Peptide conjugate digestion with Pronase; design: key to the marks not given beside the values; settings: 37° C. for 1 hr
Experimental: as §1, §2, §3

[6] = system: Subtilisin; assay: Peptide conjugate digestion with Subtilisin; settings: 37° C. for 1 hr
Experimental: as §1, §2, §3

[7] = molecular target: Kalikrein (Homo sapiens, UniProt P03952); assay: Peptide conjugate digestion with Kalikrein; design: digestion with Kalikrein: key to the marks not given beside the values; settings: for digestion with Kalikrein: 37° C. for 1 hr
Experimental: as §1, §2, §3

[8] = system: Chymotrypsin; assay: Peptide conjugate digestion with Chymotrypsin; settings: 37° C. for 1 hr
Experimental: as §1, §2, §3

Chain of Proteinase K (P06873 106-384): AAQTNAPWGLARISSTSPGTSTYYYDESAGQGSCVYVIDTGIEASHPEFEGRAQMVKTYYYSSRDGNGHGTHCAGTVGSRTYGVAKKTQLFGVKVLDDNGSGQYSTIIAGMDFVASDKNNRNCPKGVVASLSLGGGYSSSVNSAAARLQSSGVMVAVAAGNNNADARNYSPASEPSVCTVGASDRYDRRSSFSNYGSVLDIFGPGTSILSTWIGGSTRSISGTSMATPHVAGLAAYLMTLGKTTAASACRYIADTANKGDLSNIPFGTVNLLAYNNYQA
Chain of Kalikrein (P03952 20-638): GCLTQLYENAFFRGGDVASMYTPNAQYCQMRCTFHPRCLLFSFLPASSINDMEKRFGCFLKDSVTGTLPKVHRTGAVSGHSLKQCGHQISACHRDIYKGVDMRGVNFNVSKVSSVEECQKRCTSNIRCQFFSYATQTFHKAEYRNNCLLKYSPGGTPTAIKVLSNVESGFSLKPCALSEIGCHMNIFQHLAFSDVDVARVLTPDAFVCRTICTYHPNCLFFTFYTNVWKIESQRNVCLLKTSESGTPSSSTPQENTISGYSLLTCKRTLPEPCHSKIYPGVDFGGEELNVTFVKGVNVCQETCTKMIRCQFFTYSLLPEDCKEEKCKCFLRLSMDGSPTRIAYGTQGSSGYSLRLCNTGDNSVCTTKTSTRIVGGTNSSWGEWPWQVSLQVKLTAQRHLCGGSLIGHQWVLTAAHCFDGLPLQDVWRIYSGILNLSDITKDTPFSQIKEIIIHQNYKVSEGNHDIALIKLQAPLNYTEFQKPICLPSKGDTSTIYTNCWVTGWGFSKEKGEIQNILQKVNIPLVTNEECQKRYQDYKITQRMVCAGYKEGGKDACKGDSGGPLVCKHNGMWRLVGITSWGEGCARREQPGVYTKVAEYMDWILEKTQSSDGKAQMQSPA

CC(C)C[C@@H]1NC(=O)[C@H](C)NC(=O)[C@H](CCC(=O)O)NC(=O)[C@H](CC(=O)O)NC(=O)[C@H](C)NC(=O)[C@@H]2CCCN2C(=O)[C@@H]2CSCc3cc(cc(c3)CSC[C@@H](C(=O)NCC(=O)O)NC1=O)CSC[C@H](NC(=O)[C@H](C)N)C(=O)N[C@@H](CO)C(=O)N[C@@H](CC(=O)O)C(=O)N[C@@H](CCCNC(=N)N)C(=O)N[C@@H](Cc1ccccc1)C(=O)N[C@@H](CCCNC(=N)N)C(=O)N[C@@H](CC(N)=O)C(=O)N2 [PK15L1-PK15L2 bicyclic, reference compound] (HELM PEPTIDE1{A.C.S.D.R.F.R.N.C.P.A.D.E.A.L.C.G}|CHEM1{[c1c(C[*:1])cc(C[*:3])cc1C[*:2]]}$PEPTIDE1,CHEM1,2:R3-1:R1|PEPTIDE1,CHEM1,9:R3-1:R2|PEPTIDE1,CHEM1,16:R3-1:R3$$$V2.0)
at least 48 hours: time for which proteolysis in serum is resisted [3]
+++: digestion with Proteinase K ([1]; 0.01 μg enzyme per reaction) | digestion with Proteinase K ([1]; 0.1 μg enzyme per reaction) | digestion with Proteinase K ([1]; 1 μg enzyme per reaction) | digestion with Cathepsin G ([2]; 0.01 μg enzyme per reaction) | digestion with Cathepsin G ([2]; 0.1 μg enzyme per reaction) | digestion with Trypsin ([4]; 0.01 μg enzyme per reaction) | digestion with Pronase ([5]; 0.01 μg enzyme per reaction) | digestion with Pronase ([5]; 0.1 μg enzyme per reaction) | digestion with Subtilisin ([6]; 0.009 μg enzyme per reaction) | digestion with Kalikrein ([7]; 0.01 μg enzyme per reaction) | digestion with Kalikrein ([7]; 0.1 μg enzyme per reaction) | digestion with Kalikrein ([7]; 1 μg enzyme per reaction) | digestion with Chymotrypsin ([8]; 0.01 μg enzyme per reaction) | digestion with Chymotrypsin ([8]; 0.1 μg enzyme per reaction) | digestion with Chymotrypsin ([8]; 1 μg enzyme per reaction)
about 100 fold: factor by which the TBMB conjugate is more resistant than the linear peptide to attack by kallikrein ([7]; by comparing different concentrations of enzyme)
−: digestion with Trypsin ([4]; 10 μg enzyme per reaction) | digestion with Subtilisin ([6]; 9 μg enzyme per reaction)
